Patent US20070111251A1, “Chemical address tags” (priority 2003, published 2007)

system: live UACC-62 human melanoma cells; assay: Organelle-binding test: subcellular localization of styryl library compounds by fluorescence microscopy; type: cell-based; set-up: key to experimentally determined localization (subscript): The subscript m indicates experimentally determined mitochondrial localization; The subscript o indicates experimentally determined non-mitochondrial localization; conditions: FIG. 5, live UACC-62 cells
Method: The synthesis was designed so that the reaction mixture can be used directly in biological screening; toxic catalysts (e.g., such as strong acids, bases, and metals) were avoided, and most of the low-boiling point solvents and catalysts (e.g., pyrrolidine) were removed during the microwave reaction, leaving only DMSO, a common solvent for biological sample preparation. In some embodiments, without further purification, the library compounds were incubated with live UACC-62 human melanoma cells growing on glass bottom 96-well plates, and the localizations of the different compounds in the cells were determined using an Axiovert (Carl Zeiss, Inc., Thornwood, N.Y.) microscope (λex=405, 490, and 570 nm; λem>510 nm) with a 100× Zeiss oil immersion objective. […] The images in FIG. 5 show cells stained with selected fluorescent compounds.
Unless otherwise noted in this example, the materials and solvents were obtained from commercial suppliers and were used without further purification. The plate reader used in this example was a Spectra Max Gemini XSF (Molecular Devices, Corp., Sunnyvale, Calif.). In preferred embodiments, for organelle-binding tests, UACC-62 melanoma cells were selected amongst a panel of 60 human cancer cell lines, because their well-spread morphology on glass made them ideally suited for imaging purposes as well as their relevance to biomedical research. (See e.g., R. H. Shoemaker et al., Development of human tumor cell line panels for use in disease oriented drug screening. In: Hall, T. ed., Prediction of Response to Anti-cancer Chemotherapy, New York N.Y.: Alan Liss, 265-286 [1988]).
In some of these embodiments, UACC-62 cells (obtained from the Developmental Therapeutics Program at the National Cancer Institute) were grown in RPMI medium supplemented with 10% fetal calf serum. For microscopy, cells were plated on 96 well tissue-culture plates (Falcon) overnight, in RPMI plus 10% fetal calf serum, at 37° C. in 5% CO2/95% air. Cells were incubated with compounds at an approximate concentration of 50 μM for 1 hour.
A Zeiss Axiovert 135M (Carl Zeiss, Inc., Thornwood, N.Y.) inverted fluorescence microscope outfitted with a FITC/TRITC multipass filter cube (Chroma Technology, Corp., Rockingham, Vt.) was used for screening and routine cell biological fluorescence imaging applications. In some embodiments, epifluorescence microscopy was performed using a Zeiss Axiovert epifluorescence microscope equipped with a 20× objective.
The library compounds, without further purification, were incubated with live UACC-62 human melanoma cells growing on glass bottom 96-well plates (Sigma-Aldrich Corp., St. Louis, Mo.), and the localizations of the different compounds in the cells were determined by an inverted fluorescence microscope (λex=405, 490, and 570 nm; λem>510 nm) at 1000× magnification. Based on their morphology and subcellular distribution, the localizations were ascribed to mitochondria, ER (endoplasmic reticulum), nucleoli, nuclear, and cytoplasmic staining patterns such as diffuse (based on the homogenous staining appearance and exclusion from the nucleus), granular (punctate staining pattern, generally associated with the cell margins) or vesicular (heterogeneous staining pattern, generally associated with the nuclear periphery). Localization studies were performed without a priori information of the compounds' molecular structures. It was possible to ascribe the localization of the compounds to nucleus or cytoplasm, as these organelles are clearly discernible with phase contrast optics. Similarly, it was possible to ascribe localization to nucleoli, as these structures appeared as the most prominent, phase-dense structures within the nucleus. Localization to mitochondria was based on the elongated, characteristic shape of these organelles, which stain positive with established mitochondrial-specific fluorescent probes, like […] or JC-1. (L. B. Chen, Methods Cell Bio., 29:103-123 [1989]). […]

Q: With `C(=Cc1c[nH]c2ccccc12)c1cc[n+](C23CC4CC(CC(C4)C2)C3)cc1.[Br-]` [Compound A24-B2] as the compound, how does the representative localization read?
A: mitochondria

Q: For `COc1ccc2c(ccc(C=CC=Cc3ccc(N(C)C)cc3)[n+]2C)c1.[I-]` [Compound 137], which representative localization is on record?
A: cytosolic

Q: With `COc1ccc2c(ccc(/C=C/c3ccc(N(C)C)cc3)[n+]2C)c1.[I-]` [Compound 119] as the compound, how does the representative localization read?
A: nucleolar

Q: How did the representative localization turn out when `C[n+]1c(C=Cc2ccc(OCc3ccccc3)c(OCc3ccccc3)c2)ccc2ccccc21.[I-]` [Compound H12] was run?
A: vesicular

Q: How did the representative localization turn out when `C[n+]1c(C=Cc2ccc3c(c2)Cc2ccccc2-3)ccc2ccccc21.[I-]` [Compound H28] was run?
A: nuclear

Q: How did the representative localization turn out when `C[n+]1ccc(C=Cc2ccc(OCc3ccccc3)c(OCc3ccccc3)c2)cc1.[I-]` [Compound A12-B1] was run?
A: mitochondria

Q: How did the representative localization turn out when `Cc1ccnc(-c2cc(C=CC=Cc3ccc(N(C)C)cc3)cc[n+]2C)c1.[I-]` [Compound A37-B10] was run?
A: reticular

same assay, conditions: mitochondrial vs non-mitochondrial, live UACC-62 cells

Q: With `Cc1ccc[n+](C)c1C=CC=Cc1ccc(N(C)C)cc1.[I-]` [Compound A37-B4] as the compound, how does the “experimentally determined localization (subscript)” value (“experimentally” below) read?
A: m

Q: For `COc1ccc2c(ccc(C=CCc3ccccc3)[n+]2C)c1.[I-]` [Compound A1-B9], which “experimentally” value is on record?
A: m

Q: `C[n+]1ccc(C=Cc2ccccc2[N+](=O)[O-])c2ccccc21.[I-]` [Compound A20-B7] was tested. Which “experimentally” value did it give?
A: m

Q: Which “experimentally” value does the source give for `COc1ccc2c(ccc(C=Cc3ccc(NC(C)=O)cc3)[n+]2C)c1.[I-]` [Compound A18-B9] here?
A: o

Q: `C(=Cc1c[nH]c2ccccc12)c1cc[n+](C23CC4CC(CC(C4)C2)C3)cc1.[Br-]` [Compound A24-B2] was tested. Which “experimentally” value did it give?
A: m

Q: `COc1ccc2ccccc2c1C=Cc1c(C)ccc[n+]1C.[I-]` [Compound A23-B4] was tested. Which “experimentally” value did it give?
A: o

Q: With `COc1ccc2ccccc2c1C=Cc1cccc[n+]1C.[I-]` [Compound A23-B3] as the compound, how does the “experimentally” value read?
A: o

Q: `CN(C)c1ccc(C=Cc2ccc3ccccc3[n+]2C)cc1.[I-]` [Compound A19-B8] was tested. Which “experimentally” value did it give?
A: o

Q: How did the “experimentally” value turn out when `C[n+]1c(C=Cc2ccc3c(c2)OCO3)ccc2ccccc21.[I-]` [Compound A39-B8] was run?
A: o

Q: How did the “experimentally” value turn out when `COc1ccc(C=Cc2ccc3ccccc3[n+]2C)cc1O.[I-]` [Compound A15-B8] was run?
A: m

Q: For `Cc1cccc(C=Cc2ccc(OCc3ccccc3)c(OCc3ccccc3)c2)[n+]1C.[I-]` [Compound A12-B12], which “experimentally” value is on record?
A: o

Q: For `C(=Cc1cc[n+](C23CC4CC(CC(C4)C2)C3)cc1)Cc1ccccc1.[Br-]` [Compound A1-B2], which “experimentally” value is on record?
A: o

Q: For `C[n+]1c(C=Cc2cccc([N+](=O)[O-])c2)ccc2ccccc21.[I-]` [Compound A21-B8], which “experimentally” value is on record?
A: m

Q: For `COc1cc(OC)c(OC)cc1C=Cc1cc[n+](C)c2ccccc12.[I-]` [Compound A38-B7], which “experimentally” value is on record?
A: o

Q: How did the “experimentally” value turn out when `C[n+]1ccccc1C=Cc1ccc(OCc2ccccc2)c(OCc2ccccc2)c1.[I-]` [Compound A12-B3] was run?
A: m

Q: With `C[n+]1ccc(C=Cc2c[nH]c3ccccc23)cc1.[I-]` [Compound A24-B1] as the compound, how does the “experimentally” value read?
A: o

Q: For `Cc1cc(C)[n+](C)c(C=Cc2ccc(OCc3ccccc3)c(OCc3ccccc3)c2)c1.[I-]` [Compound A12-B13], which “experimentally” value is on record?
A: o

Q: Which “experimentally” value does the source give for `Cc1cccc(C=CC=Cc2ccccc2)[n+]1C.[I-]` [Compound A35-B12] here?
A: m

Q: Which “experimentally” value does the source give for `Oc1ccc(C=Cc2cc[n+](C34CC5CC(CC(C5)C3)C4)cc2)cc1.[Br-]` [Compound A16-B2] here?
A: m

Q: How did the “experimentally” value turn out when `C[n+]1ccc(C=Cc2ccc(OCc3ccccc3)c(OCc3ccccc3)c2)c2ccccc21.[I-]` [Compound A12-B7] was run?
A: m

Q: Which “experimentally” value does the source give for `CC(=O)Nc1ccc(C=Cc2ccc3ccccc3[n+]2C)cc1.[I-]` [Compound A18-B8] here?
A: m

Q: Which “experimentally” value does the source give for `Cc1ccnc(-c2cc(C=CCc3ccccc3)cc[n+]2C)c1.[I-]` [Compound A1-B10] here?
A: m

Q: Which “experimentally” value does the source give for `Cc1cc[n+](C)c(/C=C/c2c[nH]c3ccccc23)c1.[I-]` [Compound A24-B11] here?
A: m

Q: For `Cc1ccnc(-c2cc(C=CC=Cc3ccccc3)cc[n+]2C)c1.[I-]` [Compound A35-B10], which “experimentally” value is on record?
A: o

Q: For `C[n+]1ccc(C=Cc2ccc(OCc3ccccc3)c(OCc3ccccc3)c2)cc1.[I-]` [Compound A12-B1], which “experimentally” value is on record?
A: m

Q: `C[n+]1ccc(C=CCc2ccccc2)cc1.[I-]` [Compound A1-B1] was tested. Which “experimentally” value did it give?
A: o

Q: With `CN(C)c1ccc(C=Cc2cc[n+](C)cc2)c2ccccc12.[I-]` [Compound A27-B1] as the compound, how does the “experimentally” value read?
A: o

Q: Which “experimentally” value does the source give for `CCc1ccc(C=Cc2ccc(OCc3ccccc3)c(OCc3ccccc3)c2)[n+](C)c1.[I-]` [Compound A12-B5] here?
A: o

Q: `COc1ccc(C=Cc2cc[n+](C34CC5CC(CC(C5)C3)C4)cc2)c2ccccc12.[Br-]` [Compound A14-B2] was tested. Which “experimentally” value did it give?
A: o

Q: Which “experimentally” value does the source give for `COc1cc(OC)c(OC)cc1C=Cc1cc[n+](C)c(-c2cc(C)ccn2)c1.[I-]` [Compound A38-B10] here?
A: m

Q: With `COc1ccc(C=Cc2ccc3cc(OC)ccc3[n+]2C)cc1.[I-]` [Compound A10-B9] as the compound, how does the “experimentally” value read?
A: o

Q: Which “experimentally” value does the source give for `COc1ccc2ccccc2c1C=Cc1cc[n+](C)cc1.[I-]` [Compound A23-B1] here?
A: m

Q: Which “experimentally” value does the source give for `C[n+]1c(C=CCc2ccccc2)ccc2ccccc21.[I-]` [Compound A1-B8] here?
A: m

Q: For `COc1ccc2c(ccc(C=Cc3cccc([N+](=O)[O-])c3)[n+]2C)c1.[I-]` [Compound A21-B9], which “experimentally” value is on record?
A: o

Q: For `CN(C)c1ccc(C=Cc2ccc3ccccc3[n+]2C)c2ccccc12.[I-]` [Compound A27-B8], which “experimentally” value is on record?
A: m

Q: For `Cc1ccnc(-c2cc(C=CC=Cc3ccc(N(C)C)cc3)cc[n+]2C)c1.[I-]` [Compound A37-B10], which “experimentally” value is on record?
A: o

Q: Which “experimentally” value does the source give for `COc1cc(OC)c(OC)cc1C=Cc1cc[n+](C23CC4CC(CC(C4)C2)C3)cc1.[Br-]` [Compound A38-B2] here?
A: m
